Reference: patent US20070037752A1, “Novel alanyl-amino peptidase inhibitors for functionally influencing different cells and treating immunological, inflammatory, neuronal, and other diseases” (priority 2003, published 2007)
Like-named read-outs stand apart in the source and are kept apart here.

Molecular target: alanyl aminopeptidases (APN) (Homo sapiens, UniProt P15144)
Test: Inhibition of alanyl aminopeptidase enzymatic activity, fluorogenic substrate (Ala)2-rhodamine 110
Format: biochemical
Procedure: The inhibition characteristics measured are referred to as IC-50 values or ID50 values (the latter marked with “*”) for said enzyme. The enzymatic activity was determined by means of the fluorogenic substrate/product (Ala)2-rhodamine 110.

[1] = Table 9, unstarred values, read-out: IC50APN
[2] = Table 3, unstarred values, read-out: IC50APN
[3] = Table 4, unstarred values, read-out: IC50APN
[4] = Table 3, starred values = ID50, read-out: ID50 APN (values marked with *)
[5] = Table 8, starred values = ID50, read-out: ID50 APN (values marked with *)
[6] = Table 8, unstarred values, read-out: IC50APN

alanyl aminopeptidases (APN), sequence (P15144 whole entry, species assumed): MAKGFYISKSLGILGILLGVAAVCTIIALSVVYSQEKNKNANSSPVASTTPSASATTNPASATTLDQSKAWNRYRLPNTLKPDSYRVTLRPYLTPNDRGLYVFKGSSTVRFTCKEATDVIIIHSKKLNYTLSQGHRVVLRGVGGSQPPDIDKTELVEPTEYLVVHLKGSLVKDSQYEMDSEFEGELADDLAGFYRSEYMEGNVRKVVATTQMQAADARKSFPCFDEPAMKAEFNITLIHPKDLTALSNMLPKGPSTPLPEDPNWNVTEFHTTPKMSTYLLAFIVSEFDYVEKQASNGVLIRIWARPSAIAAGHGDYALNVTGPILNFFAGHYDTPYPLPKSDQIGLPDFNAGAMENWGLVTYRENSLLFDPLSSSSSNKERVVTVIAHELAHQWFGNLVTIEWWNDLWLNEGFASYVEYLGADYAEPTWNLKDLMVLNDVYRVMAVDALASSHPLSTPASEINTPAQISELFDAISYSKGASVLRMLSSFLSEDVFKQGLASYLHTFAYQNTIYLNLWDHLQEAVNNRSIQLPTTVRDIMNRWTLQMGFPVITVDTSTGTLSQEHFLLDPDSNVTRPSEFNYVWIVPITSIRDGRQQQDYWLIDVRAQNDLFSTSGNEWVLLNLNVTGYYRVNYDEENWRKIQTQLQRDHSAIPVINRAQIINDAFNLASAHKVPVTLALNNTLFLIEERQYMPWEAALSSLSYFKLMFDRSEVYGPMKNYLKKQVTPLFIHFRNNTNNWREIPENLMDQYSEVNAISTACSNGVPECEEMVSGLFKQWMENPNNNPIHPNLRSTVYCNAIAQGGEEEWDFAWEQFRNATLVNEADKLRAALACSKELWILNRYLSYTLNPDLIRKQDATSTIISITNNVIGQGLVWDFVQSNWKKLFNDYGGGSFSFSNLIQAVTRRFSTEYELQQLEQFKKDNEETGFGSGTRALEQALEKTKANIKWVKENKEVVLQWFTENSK

## Cc1cccc(C)c1Nc1c(-c2ccccc2NC(=O)Nc2cccc(Cl)c2)nc2c(C(=O)NCC(C)C)cccn12 [A9.055]
[1]
  IC50: 21.6 µM

## Cc1ccc(/C=C(\NC(=O)c2ccccc2)C(=O)NC2CC2)o1 [A3.073]
[2]
  IC50: 15.6 µM

## Cc1ccc(C(=O)N/C(=C\c2ccco2)C(=O)N2CC3CC(C2)c2cccc(=O)n2C3)cc1C (stereo not shown) [A3.048]
[2]
  IC50: 11.8 µM

## O=C(N/C(=C\c1ccco1)C(=O)N1CCC(O)CC1)c1ccccc1 [A12.038]
Table 12, read-out: IC50APN
  IC50: 21.1 µM

## O=C(N/N=C/c1cc(Br)c(O)c(Br)c1O)/C(=C\c1ccc2c(c1)OCO2)NC(=O)c1ccccc1 [A4.073]
[3]
  IC50: 23.6 µM

## CC(C)COc1ccc(C(=O)N/C(=C\c2ccco2)C(=O)N2CCOCC2)cc1 [A12.025]
Table 12, read-out: IC50APN
  IC50: 13.1 µM

## CSCCC1NC(=S)N(Cc2ccccc2)C1=O (stereo not shown) [A12.027]
Table 12, read-out: IC50APN
  IC50: 14.1 µM

## CSc1nnc2n(/N=C/c3ccco3)cnn12 [A4.112]
[3]
  IC50: 34.7 µM

## O=C(CNS(=O)(=O)c1ccc2c(c1)OCCO2)N/N=C/c1ccco1 [A9.104]
[1]
  IC50: 55.6 µM

## O=C(OCCN1CCCCC1)C1c2ccccc2Oc2ccccc21 [A12.070]
Table 12, read-out: IC50APN
  IC50: 94.8 µM

## Cc1ccccc1NC(=O)C1C(c2cccs2)C(C#N)=C(SCC(=O)Nc2ccc(Br)cc2)NC1(C)O (stereo not shown) [A12.054]
Table 12, read-out: IC50APN
  IC50: 33.9 µM

## O=[N+]([O-])c1ncn(CN2CCOCC2)n1 [A11.026]
Table 11, read-out: IC50APN
  IC50: 36.8 µM

## Cc1ccc(/C=N/NC(=O)c2ccccc2OCc2ccccc2)o1 [A4.045]
[3]
  IC50: 18.4 µM

## CCc1ccc(N2C(=O)C3C(c4cccc(Cl)c4)OC4(C(=O)c5ccccc5C4=O)C3C2=O)cc1 (stereo not shown) [A3.350]
[4]
  IC50: 336 µM

## O=C(N/N=C/c1ccco1)c1ccc(=O)[nH]n1 [A9.058]
[1]
  IC50: 22.4 µM

## CN1C(=O)C(Cc2c[nH]c3ccccc23)NC1=S (stereo not shown) [A3.330]
[4]
  IC50: 146 µM

## CCCOc1[nH]c(/N=C/c2ccccc2)c(C#N)c1C#N [A13.010]
Table 13, read-out: IC50APN
  IC50: 20 µM

## CCCCCCCSc1nnc2c(n1)OC(C(=O)c1ccccc1)=Nc1ccccc1-2 [A9.074]
[1]
  IC50: 28.9 µM

## CC1CCN(C(=O)/C(=C\c2ccco2)NC(=O)c2ccc(Cl)cc2)CC1 [A9.009]
[1]
  IC50: 6.2 µM

## CCOC(=O)C1=C(N)NC2=C(CCCC2)C12C(=O)Nc1ccccc12 (stereo not shown) [A3.202]
[2]
  IC50: 33.6 µM

## N/C(=N\N=C\c1ccco1)c1nonc1N [A4.032]
[3]
  IC50: 14.6 µM

## NC(=O)C1CCN(C(=O)/C(=C/c2ccco2)NC(=O)c2ccccc2)CC1 [A3.188]
[2]
  IC50: 30.5 µM

## O=C1CNC(c2cccc([N+](=O)[O-])c2)N1O (stereo not shown) [A3.161]
[2]
  IC50: 26.4 µM

## CCOC(=O)C(NC(=O)c1ccc(OC)cc1)(N1CCCC1=O)C(F)(F)F (stereo not shown) [A3.257]
[2]
  IC50: 48.7 µM

## O=C(CCn1nnc2ccccc21)N/N=C/c1ccco1 [A4.169]
[3]
  IC50: 82.9 µM

## Cc1ccc(C(OCCC(=O)NO)c2ccccc2)cc1 (stereo not shown) [A1.010]
Table 1, unstarred values, read-out: IC50APN
  IC50: 14.2 µM

## CCOC(=O)c1c(C)oc2c1c1c(c3ccccc32)OCN(C2CCS(=O)(=O)C2)C1 (stereo not shown) [A3.129]
[2]
  IC50: 22.3 µM

## CCOC(=O)c1ccc(-c2ccc(/C=C3\C(=O)N(CCO)C(=O)C(C#N)=C3C)o2)cc1 [A9.005]
Table 9, starred values = ID50, read-out: ID50 APN (values marked with *)
  IC50: 2.7 µM

## CCOC(=O)c1ncn(C(=O)OC)c1N [A8.001]
[5]
  IC50: 0.9 µM

## COc1cc(Br)ccc1OCC(=O)N/N=C/c1cc(O)c(O)c(Br)c1Br [A4.003]
[3]
  IC50: 5 µM

## O=C(N/N=C/C=C\c1ccco1)c1cccs1 [A3.282]
[2]
  IC50: 62.7 µM

## Cc1ccc(S(=O)(=O)N2CCC(C(=O)N/N=C/c3ccco3)CC2)cc1 [A3.298]
[2]
  IC50: 69.3 µM

## CCOC(=O)C1=C2SCC(=O)N2C(N)=C(C#N)C1 [A3.139]
[2]
  IC50: 23.1 µM

## O=C1C(Cc2ccc(O)cc2)NC(=S)N1c1ccccc1 (stereo not shown) [A8.035]
[6]
  IC50: 66.6 µM

## COc1ccc(C(=O)N/N=C/c2ccco2)cc1 [A3.134]
[2]
  IC50: 22.6 µM

## CC1=NNC(=O)C1CCC(=O)N/N=C\C=C\c1ccco1 (stereo not shown) [A3.138]
[2]
  IC50: 23 µM

## CC(C)C1N=C(Cc2cccnc2)N(CCCN2CCCC2=O)C1C(=O)NCc1ccccc1 (stereo not shown) [A3.205]
[2]
  IC50: 34 µM

## O=C1CNC(c2cccc([N+](=O)[O-])c2)N1O (stereo not shown) [A11.018]
Table 11, read-out: IC50APN
  IC50: 26.4 µM

## CC1CCCCN1S(=O)(=O)c1ccc(NC(=O)/C=C/c2ccco2)cc1 (stereo not shown) [A9.047]
[1]
  IC50: 19.9 µM

## Cc1cccc[n+]1OC(=O)N1CCCCC1 [A8.038]
[5]
  IC50: 96.7 µM

## CC1=NC(N)=NC(C)(C)N1c1c(Cl)cccc1Cl [A8.034]
[6]
  IC50: 59.8 µM

## O=C(Nc1ccc(F)cc1)c1ccc([NH+]([O-])O)o1 (stereo not shown) [A3.226]
[2]
  IC50: 37.4 µM

## O=C(N/C(=C\c1ccco1)C(=O)N1CCOCC1)c1ccco1 [A9.029]
[1]
  IC50: 13.5 µM

## CC(=O)Oc1ccc2c(=O)c(-c3cnn(-c4ccccc4)c3)c(C(F)(F)F)oc2c1OC(C)=O [A3.325]
[4]
  IC50: 134 µM

## O=C(N/C(=C\c1ccco1)C(=O)N1CCC(O)CC1)c1ccccc1 [A9.051]
[1]
  IC50: 21.1 µM

## Cc1nn(-c2ccccc2)c(C)c1-c1cc(C(=O)N/N=C/c2ccco2)[nH]n1 [A4.087]
[3]
  IC50: 27.4 µM
